Values quoted from earlier work in patent publication US12156864B2, “Analogs of cyclobenzaprine and amitryptilene” (TONIX PHARMACEUTICALS HOLDING CORP, priority 2017, dated 2024).

What was measured:
[1] = system: veterans and males with PTSD
fibromyalgia patients = settings: cyclobenzaprine 10 to 40 mg, 12-week period
[2] = target: serotonin-2A (5-HT2A) receptor (Homo sapiens, UniProt P28223)
[3] = target: histaminergic1 (H1) receptor (Homo sapiens, UniProt P35367)
patients = settings: oral doses sufficient to treat PTSD-associated sleep disorders
[4] = humans; metabolite formed via pathway b (N-dealkylation)
PTSD combat subsample = settings: combat subsample (N=77) of a pooled analysis

Sequence of serotonin-2A (5-HT2A) receptor (P28223 whole entry, species assumed): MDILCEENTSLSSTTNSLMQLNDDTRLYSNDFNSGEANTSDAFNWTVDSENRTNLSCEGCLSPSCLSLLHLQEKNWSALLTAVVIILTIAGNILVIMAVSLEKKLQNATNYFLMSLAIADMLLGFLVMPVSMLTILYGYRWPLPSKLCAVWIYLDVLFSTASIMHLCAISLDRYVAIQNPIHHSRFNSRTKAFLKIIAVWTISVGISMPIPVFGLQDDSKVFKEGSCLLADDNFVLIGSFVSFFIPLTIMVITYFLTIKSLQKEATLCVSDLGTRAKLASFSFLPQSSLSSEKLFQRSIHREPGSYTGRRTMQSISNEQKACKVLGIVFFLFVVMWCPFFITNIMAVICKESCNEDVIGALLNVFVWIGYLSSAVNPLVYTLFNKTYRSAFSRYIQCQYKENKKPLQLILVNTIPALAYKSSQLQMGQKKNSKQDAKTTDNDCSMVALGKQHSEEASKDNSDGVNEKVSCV
Sequence of histaminergic1 (H1) receptor (P35367 whole entry): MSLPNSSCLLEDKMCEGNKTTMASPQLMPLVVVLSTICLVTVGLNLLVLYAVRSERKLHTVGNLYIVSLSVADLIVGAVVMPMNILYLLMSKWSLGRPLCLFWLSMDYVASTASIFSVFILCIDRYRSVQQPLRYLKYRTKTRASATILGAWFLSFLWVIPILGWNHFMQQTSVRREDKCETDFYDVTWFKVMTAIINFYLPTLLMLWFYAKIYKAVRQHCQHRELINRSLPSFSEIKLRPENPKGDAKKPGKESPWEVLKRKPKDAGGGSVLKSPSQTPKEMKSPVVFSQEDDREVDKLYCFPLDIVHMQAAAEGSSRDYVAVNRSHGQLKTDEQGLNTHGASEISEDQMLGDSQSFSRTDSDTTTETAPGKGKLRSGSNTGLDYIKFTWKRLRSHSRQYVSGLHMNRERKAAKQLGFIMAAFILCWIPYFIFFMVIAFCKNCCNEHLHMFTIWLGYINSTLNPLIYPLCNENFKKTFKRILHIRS

CN[C@H]1CC[C@@H](c2ccc(Cl)c(Cl)c2)c2ccccc21 [Sertraline]
efficacy in PTSD [1]: failed to show efficacy

CN(C)CCC=C1c2ccccc2C=Cc2ccccc21 [cyclobenzaprine, 3-(5H-dibenzo[a,d]cyclohepten-5-ylidene)-N,N-dimethyl-1-propanamine]
quality of sleep and pain score (fibromyalgia patients): significantly improved | total number of tender points and muscle tightness (fibromyalgia patients): reduction | binding and antagonist activity at 5-HT2A receptor [2]: high affinity binding and antagonist activity | binding and antagonist activity at α1-adrenergic receptor (α1-adrenergic receptor): high affinity binding and antagonist activity | binding and antagonist activity at H1 receptor [3]: high affinity binding and antagonist activity | next-day side effect (patients): drowsiness the next day

CNCCC=C1c2ccccc2C=Cc2ccccc21 [nor-cyclobenzaprine]
half-life [4]: ~48 h

COc1ccc(C(CN(C)C)C2(O)CCCCC2)cc1 (stereo not drawn) [venlafaxine ER]
effect on PTSD or disability (PTSD combat subsample): no effect
